From US20230121721A1, “MONOACYLGLYCEROL LIPASE INHIBITORS” (STICHTING HET NEDERLANDS KANKER INSTITUUT - ANTONI VAN …, priority 2020, published 2023) come the findings set out here.

The experiment has as its target T1, hMAGL (MAGL-overexpressing membrane preparations from transiently transfected HEK293T cells) (Homo sapiens, UniProt Q99685).
T1 construct: expressed in transfected cells; host or cells: HEK293T (transient transfection), membrane preparations
T1 sequence (Q99685 1-303): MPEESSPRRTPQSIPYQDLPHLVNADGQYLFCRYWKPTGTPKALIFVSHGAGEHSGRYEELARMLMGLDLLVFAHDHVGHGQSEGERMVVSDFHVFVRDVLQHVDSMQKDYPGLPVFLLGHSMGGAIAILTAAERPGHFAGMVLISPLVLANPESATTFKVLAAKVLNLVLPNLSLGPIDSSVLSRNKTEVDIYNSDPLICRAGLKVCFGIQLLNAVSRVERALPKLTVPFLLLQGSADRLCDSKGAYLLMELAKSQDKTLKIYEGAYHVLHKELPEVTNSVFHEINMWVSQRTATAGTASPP
In words: MAGL activity assay (2-AG hydrolysis, glycerol coupled to Amplifu Red fluorescence). Format: biochemical. Particulars: hMAGL-overexpressing HEK293T membranes, 25 μM 2-AG substrate, 20 min. inhibitor incubation. The source says:
The MAGL activity assay is based on the production of glycerol from 2-arachidonoylglycerol (2-AG) hydrolysis by MAGL-overexpressing membrane preparations from transiently transfected HEK293T cells, as previously reported in van der Wel T et al., “A natural substrate-based fluorescence assay for inhibitor screening on diacylglycerol lipase”, J Lipid Res., 2015, 56(4), 927-35. The produced glycerol is coupled to the oxidation of commercially available Amplifu™ Red (Sigma-Aldrich Chemie N.V., Zwijndrecht, Netherlands) via a multi-enzyme cascade, resulting in a fluorescent signal from the dye resorufin.
Standard assays were performed in HEMNB buffer (50 mM HEPES pH 7.4, 1 mM EDTA, 5 mM MgCl2, 100 mM NaCl, 0.5% (w/v) BSA) in black, flat bottom 96-wells plates. Final protein concentration of membrane preparations from overexpressing hMAGL HEK293T cells was 1.5 μg/mL (0.3 μg per well). Inhibitors were added from 40× concentrated DMSO stocks. […] Final assay concentrations: 0.2 U/mL GK, GPO and HRP, 0.125 mM ATP, 10 μM Amplifu™ Red, 25 μM 2-AG, 5% DMSO, 0.5% ACN in a total volume of 200 μL.
For IC50 determination, the MAGL-overexpressing membranes were incubated with different inhibitor concentrations. Slopes of corrected fluorescence in time were determined in the linear interval of t=10 to t=35 min and then scaled to the corrected positive control of hMAGL-overexpressing membranes treated with vehicle (DMSO) as a 100% activity reference point. The data was exported to GraphPad Prism 5.0 and analysed in a non-linear dose-response analysis with variable slope.

As for `C[C@H]1[C@H](C)N(c2cccc(Cl)c2)CCN1C(=O)c1ccc([S+]([O-])CC(=O)c2cnccn2)c(Cl)c1` (mixture of isomers) [Example 101, (±) 2-((2-Chloro-4-(4-(3-chlorophenyl)-trans-2,3-dimethylpiperazine-1-carbonyl)phenyl)sulfinyl)-1-(pyrazin-2-yl)ethan-1-one], the IC50 (usually the concentration that inhibits the measured activity by half) was 1100 nM. This counts as single-digit micromolar.
In turn, `C[C@H]1[C@H](C)N(c2cccc(Cl)c2)CCN1C(=O)c1ccc([S+]([O-])CC(=O)c2ncccn2)c(Cl)c1` (mixture of isomers) [Example 102, (±) 2-((2-Chloro-4-(4-(3-chlorophenyl)-trans-2,3-dimethylpiperazine-1-carbonyl)phenyl)sulfinyl)-1-(pyrimidin-2-yl)ethan-1-one] gave an IC50 of 28.2 nM.
Then `C[C@H]1[C@H](C)N(c2cccc(Cl)c2)CCN1C(=O)c1ccc([S+]([O-])CC(=O)c2ccc(C(F)(F)F)cc2)c(Cl)c1` (mixture of isomers) [Example 103, (±) 2-((2-Chloro-4-(4-(3-chlorophenyl)-trans-2,3-dimethylpiperazine-1-carbonyl)phenyl)sulfinyl)-1-(4-(trifluoromethyl)phenyl)ethan-1-one], with 2950 nM; and `C[C@H]1[C@H](C)N(c2cccc(Cl)c2)CCN1C(=O)c1ccc([S+]([O-])CC(=O)c2ccccc2)c(Cl)c1` (mixture of isomers) [Example 104, (±) 2-((2-Chloro-4-(4-(3-chlorophenyl)-trans-2,3-dimethylpiperazine-1-carbonyl)phenyl)sulfinyl)-1-phenylethan-1-one], with 2290 nM; and `C[C@H]1[C@H](C)N(c2cccc(Cl)c2)CCN1C(=O)c1ccc([S+]([O-])CC(=O)c2ccc(C#N)cn2)c(Cl)c1` (mixture of isomers) [Example 105, (±) 6-(2-((2-Chloro-4-(4-(3-chlorophenyl)-trans-2,3-dimethylpiperazine-1-carbonyl)phenyl)sulfinyl)acetyl)nicotinonitrile], with 10 nM.
Consider `CCOC(=O)C[S+]([O-])c1ccc(C(=O)N2CCN(c3cccc(Cl)c3)[C@H](C)[C@H]2C)cc1C(F)(F)F` (mixture of isomers) [Example 107, (±) Ethyl 2-((4-(4-(3-chlorophenyl)-trans-2,3-dimethylpiperazine-1-carbonyl)-2-(trifluoromethyl)phenyl)sulfinyl)acetate], for which the IC50 was 14.8 nM.
The molecule `CCOC(=O)C[S+]([O-])c1ccc(C(=O)N2CCN(c3cccc(C)c3)[C@@H](C)C2)cc1[N+](=O)[O-]` (stereo partly drawn) [Example 2, Ethyl 2-((4-((S)-3-methyl-4-(m-tolyl)piperazine-1-carbonyl)-2-nitrophenyl)sulfinyl)acetate] had a half-maximal inhibitory concentration (IC50) of 269 nM. This IC50 lies about 18-fold higher than the previous one.
Then `CCOC(=O)C[S+]([O-])c1ccc(C(=O)N2CCN(c3cccc(C)c3)[C@H](C)C2)cc1[N+](=O)[O-]` (stereo partly drawn) [Example 3, Ethyl 2-((4-((R)-3-methyl-4-(m-tolyl)piperazine-1-carbonyl)-2-nitrophenyl)sulfinyl)acetate], with 195 nM; and `CCOC(=O)CSc1ccc(C(=O)N2CCN(c3cccc(C)c3)[C@@H](C)C2)cc1[N+](=O)[O-]` [Example 5, Ethyl (S)-2-((4-(3-methyl-4-(m-tolyl)piperazine-1-carbonyl)-2-nitrophenyl)thio)acetate], with greater than 10000 nM.
Then `CCOC(=O)CS(=O)(=O)c1ccc(C(=O)N2CCN(c3cccc(C)c3)[C@@H](C)C2)cc1[N+](=O)[O-]` [Example 6, Ethyl (S)-2-((4-(3-methyl-4-(m-tolyl)piperazine-1-carbonyl)-2-nitrophenyl)sulfonyl)acetate], with greater than 10000 nM; and `CCOC(=O)C[S+]([O-])c1ccc(C(=O)N2CCN(c3cccc(C)c3)[C@@H](C)C2)cc1` (stereo partly drawn) [Example 7, Ethyl 2-((4-((S)-3-methyl-4-(m-tolyl)piperazine-1-carbonyl)phenyl)sulfinyl)acetate], with 5620 nM.
Then `CCOC(=O)C[S+]([O-])c1ccc(C(=O)N2CCN(c3cccc(F)c3)CC2)cc1[N+](=O)[O-]` (stereo not drawn) [Example 9, Ethyl 2-((4-(4-(3-fluorophenyl)piperazine-1-carbonyl)-2-nitrophenyl)sulfinyl)acetate], with 631 nM.
